Experimental data: patent EP4578857A1, “CRYPTOLEPINE SALT DERIVATIVE, AND PREPARATION METHOD THEREFOR AND USE THEREOF” (Nankai University, priority 2023, dated 2025)
Read-outs that look alike come from different tables or passages of the source.

Assays:
Assay type in all cases: in vivo
[1] = system: tobacco Mosaic virus (TMV); assay: Anti-TMV activity: live protection function; details: for inhibition at 500 µg/mL: Tobacco mosaic virus, read-out: Relative inhibition rate (%) Live protection function; for TMV activity / antiTMV activity: 500µg/mL, Table 4 (all three modes); for TMV activity: compared with ribavirin; for antiTMV activity: compared with commercial Ningnanmycin
Description: (§1) Determination of anti-tobacco Mosaic virus (TMV) activity by the following procedure:
(§2) The virus crude extract was centrifuged with polyethylene glycol at twice and refrigerated at 4°C for use. The absorbance of 260nm wavelength was determined by ultraviolet spectrophotometer, and the virus concentration was calculated according to the formula. Virus concentration(mg/ml) = (A260 × dilution ratio)(/E)^0.10 1cm^260nm . [formula]
(§3) After weighing, cryptolepine salt derivative, ningnanmycin and the original drug of ribavirin were dissolved in DMF to obtain 1×10^5µg/mL mother solution, and then diluted to the required concentration with 1‰ Tween 80 aqueous solution.
Select the 3-5 leaf stage of tobacco Xanthi nc with uniform growth, spray the whole plant, repeat each treatment 3 times, and set 1‰ Tween80 aqueous solution as control. 24h later, the leaf surface was coated with emery (500 mesh), the disease venom was dipped with a brush, and the whole leaf surface was gently rubbed twice along the direction of the branch pulse by using the brush, the leaf was supported by palm of hand, the virus concentration was 10µg/mL, and the leaf was washed by water after inoculation. After 3 days, the number of disease spots was recorded and the prevnetion and control effect was calculated.

[2] = system: tobacco Mosaic virus (TMV); assay: Anti-TMV activity: live treatment effect; details: for inhibition at 500 µg/mL: Tobacco mosaic virus, 72 h, read-out: Relative inhibition rate (%) Live treatment effect
Description: as §1, §2, §3
Select the 3-5 leaf stage of tobacco Xanthi nc with uniform growth, use a brush to vaccinate the virus in the whole leaf, the virus concentration is 10µg/mL, and the leaf was washed with running water after inoculation. After the leaves were dried, the whole plant was sprayed with test sample, repeated 3 times every treatment, and 1‰ Tween 80 aqueous solution was set as control. After 3 days, the number of disease spots was recorded and the prevnetion and control effect was calculated.

[3] = system: tobacco Mosaic virus (TMV); assay: Anti-TMV activity: living passivation activity test; details: for inhibition at 500 µg/mL: Tobacco mosaic virus, read-out: Relative inhibition rate (%) Living passivation activity test
Description: as §1, §2, §3
Select the 3-5 leaf stage of tobacco Xanthi nc with uniform growth, mix the test sample agent with the same volume of virus juice to passivate for 30min, friction inoculation, virus concentration 20µg/mL, the leaf was washed with running water after inoculation, repeat 3 times, set 1‰ Tween 80 aqueous solution as control. 3 days later, the number of disease spots was calculated. [formula]
Anti-tobacco Mosaic virus passivation activity test of all compounds was at a treatment dose of 500µg/mL. The positive control was the commercial anti-plant virus agent viriazole.

[4] = system: rice sheath blight strains; assay: Bactericidal activity test: resistance to rice sheath blight (live pot test); details: for pest or weed control at 400 µg/mL: Oryza sativa, 144 h
Description: Bactericidal activity test, the determination procedure is as follows: Test of resistance to rice sheath blight: Select uniformly growing rice seedlings and spray them on the leaves at the set concentration, set a water sprayring group as blank control, every treatment was repeated twice. After 24h, the rice seedlings were inoculated with rice sheath blight strains and placed at room temperature (25±4°C) for normal management after inoculation. The prevention and control effect was investigated by visual inspection 6 days after inoculation.

[5] = read-out: Resistance to rice sheath blight (%)/400mg/L
[6] = read-out: bactericidal activity against rice sheath blight
[7] = 400mg/L leaf spray on rice seedlings, inoculated after 24h, visual inspection 6 days after inoculation, read-out: Resistance to rice sheath blight (%)/400mg/L
[8] = Treatment dose 500 mg/L, tobacco Xanthi nc sprayed 24h before inoculation, virus 10µg/mL, disease spots counted after 3 days
[9] = Treatment dose 500 mg/L, tobacco Xanthi nc inoculated (virus 10µg/mL), then sprayed, disease spots counted after 3 days
[10] = Treatment dose 500 mg/L, sample mixed with virus juice for 30min, then inoculated on tobacco Xanthi nc, virus 20µg/mL, 3 days
[11] = 400mg/L leaf spray on rice seedlings, inoculated after 24h, visual inspection 6 days after inoculation

SMILES	inhibition at 500 µg/mL [1]	inhibition at 500 µg/mL [2]	inhibition at 500 µg/mL [3]	pest or weed control at 400 µg/mL [4, 5]	TMV activity [1]	pest or weed control at 400 µg/mL [4, 7]	also measured
Cc1ccc(S(=O)(=O)n2c3ccccc3c3c2cc2cc(C(F)(F)F)ccc2[n+]3C)cc1 [Example 14]	15.3 ± 1.2%	18.9 ± 1.2%	20.1 ± 1.5%	60%	–	–	pest or weed control at 400 µg/mL [4, 6]: > 50%
CC(C)CCNc1c2ccccc2[n+](C)c2c1[nH]c1ccccc12 [Example 26]	43.1 ± 3.4%	45.4 ± 1.9%	37 ± 3%	–	better TMV activity than the ribavirin	35 ± 5%	–
C[n+]1c2ccccc2cc2c1c1ccccc1n2S(=O)(=O)c1ccccc1 [Example 22]	14 ± 1.1%	18.2 ± 1.1%	15.5 ± 1.1%	45 ± 5%	–	–	pest or weed control at 400 µg/mL [4, 6]: > 50%
CCNCCNc1c2ccccc2[n+](C)c2c1[nH]c1ccccc12 [Example 37]	31.6 ± 3.2%	20.7 ± 1.2%	33.6 ± 0.8%	–	–	40%	–
Cn1c2c3cc(Br)ccc3nc-2cc2ccccc21 [Reference Example 1, 5-methyl-7-bromo 5H-indolo[3,2-b]quinoline, reference compound]	–	–	–	–	–	0%	inhibition at 500 µg/mL [1, 8]: 15.1 ± 2%; inhibition at 500 µg/mL [2, 9]: 10.5 ± 3%; inhibition at 500 µg/mL [3, 10]: 10.2 ± 1.8%; bactericidal activity against rice sheath blight ([4]; live pot test, result in words, summary of Table 5 (400mg/L)): no activity
C[n+]1c2ccccc2c(NC2CCNC2)c2[nH]c3ccccc3c21 (centres unmarked) [Example 40]	45.8 ± 3.8%	39.5 ± 3.1%	38.6 ± 2.5%	–	better TMV activity than the ribavirin	20%	–
C[n+]1c2ccccc2c(NCC2CCNCC2)c2[nH]c3ccccc3c21.[I-] [Example 42]	–	–	–	–	–	–	Relative inhibition rate (%) Live protection function [1, 8]: 28.1±3.0%; Relative inhibition rate (%) Live treatment effect [2, 9]: 30.2±2.1%; Relative inhibition rate (%) Living passivation activity test [3, 10]: 25.1±0.2%; Resistance to rice sheath blight (%)/400mg/L [4, 11]: 25±5%
C[n+]1c2ccccc2c(NCC2CC2)c2[nH]c3ccccc3c21 [Example 28]	20.5 ± 1.7%	19.6 ± 0.2%	25.3 ± 1.2%	–	–	60%	pest or weed control at 400 µg/mL ([4]; live pot test, summary of Table 5 (400mg/L), read-out: bactericidal activity against rice sheath blight): > 50%
Cc1ccc(S(=O)(=O)n2c3ccc(Br)cc3c3c2cc2ccccc2[n+]3C)cc1 [Example 6]	48.4 ± 4.7%	45.2 ± 3.6%	41 ± 2.2%	40%	better TMV activity than the ribavirin	–	antiTMV activity [1]: comparable to that of commercial Ningnanmycin
Cc1ccc(S(=O)(=O)n2c3ccccc3c3c2cc2cc(Cl)ccc2[n+]3C)cc1 [Example 12]	23.4 ± 3.3%	19.1 ± 1%	20.3 ± 2.1%	40%	–	–	–
CCCNc1c2ccccc2[n+](C)c2c1[nH]c1ccccc12 [Example 23]	33 ± 2.9%	30.1 ± 1%	35.2 ± 1.1%	–	–	30%	–
CC(N)CNc1c2ccccc2[n+](C)c2c1[nH]c1ccccc12 (centres unmarked) [Example 35]	41 ± 2.4%	48 ± 1.5%	44.3 ± 2.9%	–	better TMV activity than the ribavirin	25 ± 5%	–
C[n+]1c2ccccc2c(NCCCN)c2[nH]c3ccccc3c21.[I-] [Example 33]	–	–	–	–	better TMV activity than the ribavirin	–	antiTMV activity [1]: comparable to that of commercial Ningnanmycin; Relative inhibition rate (%) Live protection function [1, 8]: 57.9±4.6%; Relative inhibition rate (%) Live treatment effect [2, 9]: 51.7±3.6%; Relative inhibition rate (%) Living passivation activity test [3, 10]: 49.8±3.1%; Resistance to rice sheath blight (%)/400mg/L [4, 11]: 40±0%
C[n+]1c2ccccc2c(NC2CCCC2)c2[nH]c3ccccc3c21 [Example 29]	38.6 ± 4.6%	36.5 ± 2.3%	30.5 ± 0.9%	–	–	30%	–
NC(=O)c1ncn([C@@H]2O[C@H](CO)[C@@H](O)[C@H]2O)n1 [ribavirin, reference compound]	–	–	–	–	–	–	inhibition at 500 µg/mL [1, 8]: 39.5 ± 2%; inhibition at 500 µg/mL [2, 9]: 36.1 ± 3.7%; inhibition at 500 µg/mL [3, 10]: 38 ± 1.3%
Cc1ccc(S(=O)(=O)n2c3ccccc3c3c2cc2ccccc2[n+]3C)cc1 [Example 1]	18.9 ± 2.6%	20.3 ± 1.1%	18.5 ± 0.6%	95 ± 5%	–	–	pest or weed control at 400 µg/mL [4, 6]: > 95%
CNCCCNc1c2ccccc2[n+](C)c2c1[nH]c1ccccc12 [Example 38]	35 ± 4.1%	40.2 ± 1%	30.7 ± 1.2%	–	–	30%	–
Cc1ccc(S(=O)(=O)n2c3ccc(Cl)cc3c3c2cc2ccccc2[n+]3C)cc1 [Example 5]	46.7 ± 4.1%	35.8 ± 4.8%	39.3 ± 2.5%	55 ± 5%	better TMV activity than the ribavirin	–	antiTMV activity [1]: comparable to that of commercial Ningnanmycin; pest or weed control at 400 µg/mL [4, 6]: > 50%
C[n+]1c2ccccc2c(NCCCC2CCCCC2)c2[nH]c3ccccc3c21 [Example 31]	29.5 ± 1.3%	28.9 ± 1.1%	30.5 ± 0.2%	–	–	25 ± 5%	–
Cc1ccc(S(=O)(=O)n2c3ccc(C#N)cc3c3c2cc2ccccc2[n+]3C)cc1 [Example 8]	18.8 ± 4.2%	23.1 ± 0.5%	18.6 ± 1.2%	30%	–	–	–
C[n+]1c2ccccc2c(NCC2CCCNC2)c2[nH]c3ccccc3c21 (centres unmarked) [Example 43]	26.1 ± 1%	28.3 ± 0.2%	30 ± 2.1%	–	–	30%	–
C[n+]1c2ccccc2c(NC2CCNCC2)c2[nH]c3ccccc3c21 [Example 41]	40.8 ± 4.7%	34.1 ± 2.3%	30.6 ± 4%	–	better TMV activity than the ribavirin	40%	–
COC(=O)c1ccc2c(c1)cc1c(c3ccccc3n1S(=O)(=O)c1ccc(C)cc1)[n+]2C [Example 15]	15.6 ± 0.4%	22.1 ± 0.2%	20 ± 1%	40%	–	–	–
Cc1ccc(S(=O)(=O)n2c3ccccc3c3c2cc2ccccc2[n+]3CC2CCCCC2)cc1 [Example 19]	47 ± 2.8%	42.4 ± 4.9%	44.2 ± 3.4%	20%	better TMV activity than the ribavirin	–	–
CNCC(=O)N[C@@H](CO)C(=O)N[C@H]1[C@H](O)[C@@H](O)[C@H](n2ccc(N)nc2=O)O[C@@H]1C(N)=O [Ningnanmycin, reference compound]	58.3 ± 4.1%	56.9 ± 2.8%	59 ± 2.2%	–	–	–	–
Cc1nc(C(F)(F)F)c(C(=O)Nc2c(Br)cc(OC(F)(F)F)cc2Br)s1 [Thifluzamide, reference compound]	–	–	–	–	–	100%	–
